Data published in US11535629B2, “Dioxoloisoquinolinone derivatives and use thereof” (HANMI PHARMACEUTICAL CO., LTD., priority 2020, dated 2022).
Read-outs that look alike come from different tables or passages of the source.

System: KARPAS-422 cells
Test: Cell growth inhibition test (CTG method)
Assay type: cell-based
Details: KARPAS-422 (EZH2^Y641N mutant), culturing for 7 days, read-out: Cell growth inhibitory activity (GI50, nM) KARPAS-422 (EZH2^Y641N mutant)
Protocol: The cultured cell strain was prepared at 1.8×10^4 cells/400 μL and placed in a 48-well plate.

[1] = Homo sapiens, KARPAS-422, 168 h

For `COc1cc(C)[nH]c(=O)c1CN1CCc2c(C)c3c(c(C)c2C1=O)OC(C)(C12CCC(N(C)C)(CC1)CC2)O3` (stereo not shown) [Compound 25, 2-(4-(dimethylamino)bicyclo[2.2.2]octan-1-yl)-6-((4-methoxy-6-methyl-2-oxo-1,2-dihydropyridin-3-yl)methyl)-2,4,9-trimethyl-7,8-dihydro[1,3]dioxolo[4,5-g]isoquinolin-5(6H)-one], the GI50 [1] was 14 nM.

In the case of `Cc1cc(C)c(CN2CCc3c(c(C)c4c(c3-c3ccc(C)s3)O[C@](C)([C@H]3CC[C@H](N(C)C)CC3)O4)C2=O)c(=O)[nH]1` [Compound 42, (R)-6-((4,6-dimethyl-2-oxo-1,2-dihydropyridin-3-yl)methyl)-2-(trans-4-(dimethylamino)cyclohexyl)-2,4-dimethyl-9-(5-methylthiophen-2-yl)-7,8-dihydro-[1,3]dioxolo[4,5-g]isoquinolin-5(6H)-one], the GI50 [1] was 5.7 nM.

Compound `Cc1cc(C)c(CN2CCc3c(c(C)c4c(c3-c3cccs3)O[C@@](C)([C@H]3CC[C@H](N(C)C)CC3)O4)C2=O)c(=O)[nH]1` [Compound 33, (S)-6-((4,6-dimethyl-2-oxo-1,2-dihydropyridin-3-yl)methyl)-2-(trans-4-(dimethylamino)cyclohexyl)-2,4-dimethyl-9-(thiophen-2-yl)-7,8-dihydro-[1,3]dioxolo[4,5-g]isoquinolin-5(6H)-one] has a GI50 [1] of over 1000 nM.

`Cc1cc(C)c(CN2CCc3c(c(C)c4c(c3-c3ccco3)O[C@@](C)([C@H]3CC[C@H](N)CC3)O4)C2=O)c(=O)[nH]1` [Compound 59, (S)-2-(trans-4-aminocyclohexyl)-6-((4,6-dimethyl-2-oxo-1,2-dihydropyridin-3-yl)methyl)-9-(furan-2-yl)-2,4-dimethyl-7,8-dihydro-[1,3]dioxolo[4,5-g]isoquinolin-5(6H)-one] was tested, and the GI50 [1] was over 1000 nM.

Compound `Cc1cc(C)c(CN2CCc3c(Cl)c4c(c(C)c3C2=O)OC(C23CCC(N(C)C)(CC2)CC3)O4)c(=O)[nH]1` (stereo not shown) [Compound 29, 9-chloro-6-((4,6-dimethyl-2-oxo-1,2-dihydropyridin-3-yl)methyl)-2-(4-(dimethylamino)bicyclo[2.2.2]octan-1-yl)-4-methyl-7,8-dihydro-[1,3]dioxolo[4,5-g]isoquinolin-5(6H)-one] has a GI50 [1] of 36 nM.

With `CCc1c2c(c(C)c3c1OC(C)(C14CCC(N(C)C)(CC1)CC4)O3)C(=O)N(Cc1c(C)cc(C)[nH]c1=O)CC2` (stereo not shown) [Compound 18, 6-((4,6-dimethyl-2-oxo-1,2-dihydropyridin-3-yl)methyl)-2-(4-(dimethylamino)bicyclo[2.2.2]octan-1-yl)-9-ethyl-2,4-dimethyl-7,8-dihydro-[1,3]dioxolo[4,5-g]isoquinolin-5(6H)-one] the GI50 [1] was 27 nM.

`CCCc1cc(C)[nH]c(=O)c1CN1CCc2c(C)c3c(c(C)c2C1=O)OC(C)(C12CCC(N(C)C)(CC1)CC2)O3` (stereo not shown) [Compound 26, 2-(4-(dimethylamino)bicyclo[2.2.2]octan-1-yl)-2,4,9-trimethyl-6-((6-methyl-2-oxo-4-propyl-1,2-dihydropyridin-3-yl)methyl)-7,8-dihydro[1,3]dioxolo[4,5-g]isoquinolin-5(6H)-one] showed a GI50 [1] of 46 nM.

Work on `Cc1cc(C)c(CN2CCc3c(Br)c4c(c(C)c3C2=O)OC(C)(C23CCC(N(C)C)(CC2)CC3)O4)c(=O)[nH]1` (stereo not shown) [Compound 10, 9-bromo-6-((4,6-dimethyl-2-oxo-1,2-dihydropyridin-3-yl)methyl)-2-(4-(dimethylamino)bicyclo[2.2.2]octan-1-yl)-2,4-dimethyl-7,8-dihydro-[1,3]dioxolo[4,5-g]isoquinolin-5(6H)-one] yielded a GI50 [1] of 4.1 to 55 nM.

In the case of `Cc1cc(C)c(CN2CCc3cc4c(c(C)c3C2=O)OC(C)(C23CCC(N(C)C)(CC2)CC3)O4)c(=O)[nH]1` (stereo not shown) [Compound 14, 6-((4,6-dimethyl-2-oxo-1,2-dihydropyridin-3-yl)methyl)-2-(4-(dimethylamino)bicyclo[2.2.2]octan-1-yl)-2,4-dimethyl-7,8-dihydro-[1,3]dioxolo[4,5-g]isoquinolin-5(6H)-one], the GI50 [1] was 45 nM.

Work on `Cc1cc(C)c(CN2CCc3c(c(C)c4c(c3-c3cccnc3)O[C@@](C)([C@H]3CC[C@H](N(C)C)CC3)O4)C2=O)c(=O)[nH]1` [Compound 45, (S)-6-((4,6-dimethyl-2-oxo-1,2-dihydropyridin-3-yl)methyl)-2-(trans-4-(dimethylamino)cyclohexyl)-2,4-dimethyl-9-(pyridin-3-yl)-7,8-dihydro-[1,3]dioxolo[4,5-g]isoquinolin-5(6H)-one] yielded a GI50 [1] of over 1000 nM.

`Cc1cc(C)c(CN2CCc3c(c(C)c4c(c3-c3ccc(C)s3)O[C@@](C)([C@H]3CC[C@H](N(C)C)CC3)O4)C2=O)c(=O)[nH]1` [Compound 43, (S)-6-((4,6-dimethyl-2-oxo-1,2-dihydropyridin-3-yl)methyl)-2-(trans-4-(dimethylamino)cyclohexyl)-2,4-dimethyl-9-(5-methylthiophen-2-yl)-7,8-dihydro-[1,3]dioxolo[4,5-g]isoquinolin-5(6H)-one] gave a GI50 [1] of over 1000 nM.

`Cc1cc(C)c(CN2CCc3c(c(C)c4c(c3-c3ccoc3)O[C@](C)([C@H]3CC[C@H](N(C)C)CC3)O4)C2=O)c(=O)[nH]1` [Compound 56, (R)-6-((4,6-dimethyl-2-oxo-1,2-dihydropyridin-3-yl)methyl)-2-(trans-4-(dimethylamino)cyclohexyl)-9-(furan-3-yl)-2,4-dimethyl-7,8-dihydro-[1,3]dioxolo[4,5-g]isoquinolin-5(6H)-one] gave a GI50 [1] of 7.2 nM.

Compound `Cc1cc(C)c(CN2CCc3c(c(C)c4c(c3-c3ccc(F)nc3)O[C@](C)([C@H]3CC[C@H](N(C)C)CC3)O4)C2=O)c(=O)[nH]1` [Compound 36, (R)-6-((4,6-dimethyl-2-oxo-1,2-dihydropyridin-3-yl)methyl)-2-(trans-4-(dimethylamino)cyclohexyl)-9-(6-fluoropyridin-3-yl)-2,4-dimethyl-7,8-dihydro-[1,3]dioxolo[4,5-g]isoquinolin-5(6H)-one] has a GI50 [1] of 5.8 nM.

In the case of `Cc1cc(C)c(CN2CCc3c(c(C)c4c(c3-c3ccco3)O[C@](C)([C@H]3CC[C@H](N)CC3)O4)C2=O)c(=O)[nH]1` [Compound 58, (R)-2-(trans-4-aminocyclohexyl)-6-((4,6-dimethyl-2-oxo-1,2-dihydropyridin-3-yl)methyl)-9-(furan-2-yl)-2,4-dimethyl-7,8-dihydro-[1,3]dioxolo[4,5-g]isoquinolin-5(6H)-one], the GI50 [1] was 28 nM.

Work on `Cc1cc(C)c(CN2CCc3c(Br)c4c(c(C)c3C2=O)OC(C)(C23CCC(N(C)C)(CC2)CC3)O4)c(=O)[nH]1` (single isomer, unassigned) [Compound 12, 9-bromo-6-((4,6-dimethyl-2-oxo-1,2-dihydropyridin-3-yl)methyl)-2-(4-(dimethylamino)bicyclo[2.2.2]octan-1-yl)-2,4-dimethyl-7,8-dihydro-[1,3]dioxolo[4,5-g]isoquinolin-5(6H)-one] yielded a GI50 of over 1000 nM.

`Cc1cc(C)c(CN2CCc3c(C)c4c(c(Cl)c3C2=O)OC(C)(C23CCC(N(C)C)(CC2)CC3)O4)c(=O)[nH]1` (stereo not shown) [Compound 27, 4-chloro-6-((4,6-dimethyl-2-oxo-1,2-dihydropyridin-3-yl)methyl)-2-(4-(dimethylamino)bicyclo[2.2.2]octan-1-yl)-2,9-dimethyl-7,8-dihydro-[1,3]dioxolo[4,5-g]isoquinolin-5(6H)-one] was tested, and the GI50 [1] was 9.8 nM.

Work on `Cc1cc(C)c(CN2CCc3c(c(C)c4c(c3-c3cnn(C)c3)O[C@@](C)([C@H]3CC[C@H](N(C)C)CC3)O4)C2=O)c(=O)[nH]1` [Compound 39, (S)-6-((4,6-dimethyl-2-oxo-1,2-dihydropyridin-3-yl)methyl)-2-(trans-4-(dimethylamino)cyclohexyl)-2,4-dimethyl-9-(1-methyl-1H-pyrazol-4-yl)-7,8-dihydro-[1,3]dioxolo[4,5-g]isoquinolin-5(6H)-one] yielded a GI50 [1] of over 1000 nM.

In the case of `Cc1cc(C)c(CN2CCc3c(c(C)c4c(c3-c3ccc(C)o3)O[C@@](C)([C@H]3CC[C@H](N(C)C)CC3)O4)C2=O)c(=O)[nH]1` [Compound 41, (S)-6-((4,6-dimethyl-2-oxo-1,2-dihydropyridin-3-yl)methyl)-2-(trans-4-(dimethylamino)cyclohexyl)-2,4-dimethyl-9-(5-methylfuran-2-yl)-7,8-dihydro-[1,3]dioxolo[4,5-g]isoquinolin-5(6H)-one], the GI50 [1] was over 1000 nM.

With `Cc1cc(C)c(CN2CCc3c(c(C)c4c(c3C3CC3)OC(C)(C35CCC(N(C)C)(CC3)CC5)O4)C2=O)c(=O)[nH]1` (stereo not shown) [Compound 13, 9-cyclopropyl-6-((4,6-dimethyl-2-oxo-1,2-dihydropyridin-3-yl)methyl)-2-(4-(dimethylamino)bicyclo[2.2.2]octan-1-yl)-2,4-dimethyl-7,8-dihydro-[1,3]dioxolo[4,5-g]isoquinolin-5(6H)-one] the GI50 [1] was 30 nM.

With `Cc1cc(C)c(CN2CCc3c(c(C)c4c(c3C(C)C)OC(C)(C35CCC(N(C)C)(CC3)CC5)O4)C2=O)c(=O)[nH]1` (stereo not shown) [Compound 20, 6-((4,6-dimethyl-2-oxo-1,2-dihydropyridin-3-yl)methyl)-2-(4-(dimethylamino)bicyclo[2.2.2]octan-1-yl)-9-isopropyl-2,4-dimethyl-7,8-dihydro-[1,3]dioxolo[4,5-g]isoquinolin-5(6H)-one] the GI50 [1] was 47 nM.

For `Cc1cc(C)c(CN2CCc3c(c(C)c4c(c3-n3ccnc3)O[C@](C)([C@H]3CC[C@H](N(C)C)CC3)O4)C2=O)c(=O)[nH]1` [Compound 54, (R)-6-((4,6-dimethyl-2-oxo-1,2-dihydropyridin-3-yl)methyl)-2-(trans-4-(dimethylamino)cyclohexyl)-9-(1H-Imidazol-1-yl)-2,4-dimethyl-7,8-dihydro-[1,3]dioxolo[4,5-g]isoquinolin-5(6H)-one], the GI50 [1] was 28 nM.

`CSc1cc(C)[nH]c(=O)c1CN1CCc2c(Cl)c3c(c(C)c2C1=O)OC(C)(C12CCC(N(C)C)(CC1)CC2)O3` (single isomer, unassigned) [Compound 9, 9-chloro-2-(4-(dimethylamino)bicyclo[2.2.2]octan-1-yl)-2,4-dimethyl-6-((6-methyl-4-(methylthio)-2-oxo-1,2-dihydropyridin-3-yl)methyl)-7,8-dihydro[1,3]dioxolo[4,5-g]isoquinolin-5(6H)-one] showed a GI50 of 100 to 1000 nM.
